Laboratory results reported in patent US20200069691A1, “HETEROCYCLIC COMPOUNDS AS HIV PROTEASE INHIBITORS” (Merck Sharp & Dohme Corp., priority 2016, published 2020).

Target: T1, wild-type HIV-1 protease (Human immunodeficiency virus type 1 group M subtype B, UniProt P04585)
T1 construct: Escherichia coli expressed wild-type HIV-1 protease protein
Assay: Assay for Inhibition of Microbial Expressed HIV Protease (peptide substrate cleavage, LC-MS/MS readout)
Format: biochemical
Conditions: E. coli expressed wild-type HIV-1 protease, mean of at least two independent experiments, read-out: HIV Pr Enzyme HIV1 PR IC50
Summary of the method: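 E. coli-expressed wild-type HIV-1 protease ([…]) was preincubated with inhibitor 30 min at room temperature in pH 5.5 acetate buffer (100 mM NaCl, 0.1% BSA). Then 400 μM octapeptide substrate was added and reacted 1 h at 30 °C; inhibition came from LC-MS/MS product peak areas, mean of ≥2 experiments.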

Row | SMILES | IC50
1 | N=C1NC(c2ccc(F)cc2)(c2ccc(F)cc2)C(=O)N1Cc1cccc(C(=O)N2Cc3nccnc3C2)c1 [Compound 200, 3-[3-(5,7-dihydro-6H-pyrrolo[3,4-b]pyrazin-6-ylcarbonyl)benzyl]-5,5-bis(4-fluorophenyl)-2-iminoimidazolidin-4-one] | 14.2 nM
2 | N=C1NC(c2ccccc2)(c2ccc(-c3ccc(F)cc3)cc2)C(=O)N1Cc1cccc(C(=O)N2Cc3nccnc3C2)c1 (stereo not drawn) [Compound 201, 3-[3-(5,7-dihydro-6H-pyrrolo[3,4-b]pyrazin-6-ylcarbonyl)benzyl]-5-(4′-fluorobiphenyl-4-yl)-2-imino-5-phenylimidazolidin-4-one] | 6.32 nM
3 | C[C@H](c1cccc(C(=O)N2Cc3cnn(C)c3C2)c1)N1C(=N)NC(c2ccc(F)cc2)(c2ccc(F)cc2)C1=O [Compound 202, 5,5-bis(4-fluorophenyl)-2-imino-3-[(1R)-1-{3-[(1-methyl-4,6-dihydropyrrolo [3,4-c]pyrazol-5(1H)-yl)carbonyl]phenyl}-ethyl]imidazolidin-4-one] | 6.54 nM
4 | N=C1NC(c2ccccc2)(c2ccccc2)C(=O)N1Cc1cccc(C(=O)N2Cc3ccc(F)cc3C2)c1 [Compound 203, 3-{3-[(5-fluoro-1,3-dihydro-2H-isoindol-2-yl)carbonyl]benzyl}-2-imino-5,5-diphenylimidazolidin-4-one] | 6.71 nM
5 | CC(C)CCC1(c2ccccc2)NC(=N)N(Cc2cccc(C(=O)N3Cc4ccccc4C3)c2)C1=O (stereo not drawn) [Compound 204, 3-[3-(1,3-dihydro-2H-isoindol-2-ylcarbonyl)benzyl]-2-imino-5-(3-methylbutyl)-5-phenylimidazolidin-4-one] | 7.38 nM
6 | COc1ncc2c(n1)CN(C(=O)c1cccc(CN3C(=N)NC(c4ccc(F)cc4)(c4ccc(F)cc4)C3=O)c1)C2 [Compound 205, 5,5-bis(4-fluorophenyl)-2-imino-3-{3-[(2-methoxy-5,7-dihydro-6H-pyrrolo[3,4-d]pyrimidin-6-yl)carbonyl]benzyl} imidazolidin-4-one] | 7.67 nM
7 | Cc1nc2c(s1)CN(C(=O)c1cccc(CN3C(=N)NC(c4ccccc4)(c4ccccc4)C3=O)c1)C2 [Compound 206, 5-({3-[(2-imino-5-oxo-4,4-diphenylimidazolidin-1-yl)methyl]phenyl}carbonyl)-2-methyl-3,4,5,6-tetrahydropyrrolo[3,4-d][1,3]thiazol-1-ium] | 8.2 nM
8 | CC(C)CC[C@]1(c2ccccc2)NC(=N)N(Cc2cc(F)cc(C(=O)N3Cc4nccnc4C3)c2)C1=O [Compound 207, (5R)-3-[3-(5,7-dihydro-6H-pyrrolo[3,4-b]pyrazin-6-ylcarbonyl)-5-fluorobenzyl]-2-imino-5-(3-methylbutyl)-5-phenylimidazolidin-4-one] | 8.35 nM
9 | CC(C)CCC1(c2ccccc2)NC(=N)N(Cc2cccc(C(=O)N3Cc4nccnc4C3)c2)C1=O (stereo not drawn) [Compound 208, 3-[3-(5,7-dihydro-6H-pyrrolo[3,4-b]pyrazin-6-ylcarbonyl)benzyl]-2-imino-5-(3-methylbutyl)-5-phenylimidazolidin-4-one] | 35.2 nM
10 | CCOC(=O)c1nc2n(c1Cl)CCN(C(=O)c1cccc(CN3C(=N)NC(c4ccccc4)(c4ccccc4)C3=O)c1)C2 [Compound 209, ethyl 3-chloro-7-({3-[(2-imino-5-oxo-4,4-diphenylimidazolidin-1-yl)methyl]phenyl}carbonyl)-5,6,7,8-tetrahydroimidazo[1,2-a]pyrazine-2-carboxylate] | 8.83 nM
11 | CC(C)CC1(c2cccc(F)c2)NC(=N)N(Cc2cccc(C(=O)N3Cc4nccnc4C3)c2)C1=O (stereo not drawn) [Compound 210, 3-[3-(5,7-dihydro-6H-pyrrolo[3,4-b]pyrazin-6-ylcarbonyl)benzyl]-5-(3-fluorophenyl)-2-imino-5-(2-methylpropyl)imidazolidin-4-one] | 9.12 nM
12 | N=C1NC(c2ccc(F)cc2)(c2ccc(F)cc2)C(=O)N1Cc1cccc(C(=O)N2Cc3cnc(C(F)(F)F)nc3C2)c1 [Compound 211, 5,5-bis(4-fluorophenyl)-2-imino-3-(3-{[2-(trifluoromethyl)-5,7-dihydro-6H-pyrrolo[3,4-d]pyrimidin-6-yl]carbonyl}benzyl) imidazolidin-4-one] | 29.1 nM
